Patent publication US7166598B2, “Piperazine derivatives” (Astellas Pharma Inc., priority 1998, dated 2007)

SMILES	melting point
Cl.Cl.O=C(c1cc(C(F)(F)F)cc(C(F)(F)F)c1)N1CCN(Cc2cccnc2)C[C@H]1Cc1ccc(F)c(O)c1	50 to 60 °C
Cl.Cl.O=C(c1cc(C(F)(F)F)cc(C(F)(F)F)c1)N1CCN(Cc2cccnc2)C[C@H]1Cc1ccc(F)cc1	130 to 137.3 °C
Cl.Cn1cc(CN2CCN(C(=O)c3cc(C(F)(F)F)cc(C(F)(F)F)c3)[C@H](Cc3ccc4ccccc4c3)C2)cn1	> 250 °C
COc1cc(C[C@@H]2CN(Cc3cnn(C)c3)CCN2C(=O)c2cc(C(F)(F)F)cc(C(F)(F)F)c2)ccc1F.Cl	127 to 135 °C
COC[C@@H]1CN(CCN2CCN(C(=O)c3cc(SC)cc(C(F)(F)F)c3)[C@H](Cc3ccc(C)c(O)c3)C2)CCO1.Cl.Cl	154 to 168 °C
COC[C@@H]1CN(CCN2CCN(C(=O)c3cc(C(F)(F)F)cc(S(=O)(=O)N(C)C)c3)[C@H](Cc3ccc(C)c(O)c3)C2)CCO1.Cl.Cl	153.5 to 160 °C
Cc1ccc(C[C@@H]2CN(Cc3cnn(C)c3)CCN2C(=O)c2cc(C(F)(F)F)cc(C(F)(F)F)c2)cc1O.Cl	160 to 180 °C
Cc1ccc(C[C@@H]2CN(CCN3[C@@H](C)COC[C@@H]3C)CCN2C(=O)c2cc(C(F)(F)F)cc(C(F)(F)F)c2)cc1O.Cl.Cl	240 to 250 °C
CNc1cc(C(=O)N2CCN(CCN3C[C@@H](C)O[C@@H](C)C3)C[C@H]2Cc2ccc(Cl)cc2)cc(C(F)(F)F)c1.Cl.Cl	245.6 to 248.7 °C
C[C@@H]1CN(CCN2CCN(C(=O)c3cc(F)cc(C(F)(F)F)c3)[C@H](Cc3ccc(Cl)cc3)C2)C[C@H](C)O1.Cl.Cl	80.1 to 82.5 °C
C[C@@H]1CN(CCN2CCN(C(=O)c3cc(Cl)cc(Cl)c3)[C@H](Cc3ccc(Cl)cc3)C2)C[C@H](C)O1.Cl.Cl	140.1 to 143.8 °C
Cl.Cl.Cl.Cl.O=C(c1cc(-c2ccncc2)cc(C(F)(F)F)c1)N1CCN(CCN2CCc3ncccc3C2)C[C@H]1Cc1ccc(Cl)cc1	206 to 217 °C
Cc1ccc(C[C@@H]2CN(Cc3csc(N)n3)CCN2C(=O)c2cc(C(F)(F)F)cc(C(F)(F)F)c2)cc1O.Cl.Cl	205 to 215 °C
Cc1ccc(C[C@@H]2CN(Cc3nsc(N)n3)CCN2C(=O)c2cc(C(F)(F)F)cc(C(F)(F)F)c2)cc1O.Cl.Cl	177 to 182 °C
COc1cc(C(=O)N2CCN(CCCc3cccnc3)C[C@H]2Cc2ccc(C(F)(F)F)cc2)cc(C(F)(F)F)c1.Cl.Cl	70 to 80 °C
COC[C@@H]1CN(C/C=C\CN2CCN(C(=O)c3cc(C(F)(F)F)cc(C(F)(F)F)c3)[C@H](Cc3ccc(C)c(O)c3)C2)CCO1.Cl.Cl	180 to 200 °C
COC[C@@H]1COCCN1CCN1CCN(C(=O)c2cc(C(F)(F)F)cc(C(F)(F)F)c2)C(Cc2ccc(C)c(O)c2)C1.Cl.Cl (some centres unmarked)	167 to 172 °C
CNc1cc(C[C@@H]2CN(CCN3CCO[C@H](COC)C3)CCN2C(=O)c2cc(C(F)(F)F)cc(C(F)(F)F)c2)ccc1C.Cl.Cl.Cl	156 to 163 °C
COC[C@H]1CN(CCN2CCN(C(=O)c3cc(C(F)(F)F)cc(C(F)(F)F)c3)[C@H](Cc3ccc(C(F)(F)F)cc3)C2)CCO1.Cl.Cl	188 to 194 °C
Cl.Cl.O=C(c1cc(C(F)(F)F)cc(C(F)(F)F)c1)N1CCN(CCN2CCC[C@H]2CO)C[C@H]1Cc1ccc(C(F)(F)F)cc1	221 to 224 °C
COc1cc(C[C@@H]2CN(CCN3[C@H](CO)CCC[C@@H]3CO)CCN2C(=O)c2cc(C(F)(F)F)cc(C(F)(F)F)c2)ccc1F.Cl.Cl	159 to 161 °C
COc1cc(C(=O)N2CCN(CCN3CCc4ncccc4C3)C[C@H]2Cc2ccc(C)c(O)c2)cc(C(F)(F)F)c1.Cl.Cl.Cl	192 to 208 °C

SMILES	melting point
COc1cc(C(=O)N2CCN(CC#CCN3CCOCC3(C)C)C[C@H]2Cc2ccc(C)c(O)c2)cc(C(F)(F)F)c1.Cl.Cl	181 to 188 °C
Cl.Cl.Cl.O=C(c1cc(Cl)cc(C(F)(F)F)c1)N1CCN(CCN2CCc3ncccc3C2)C[C@H]1Cc1ccc(Cl)c(O)c1	200 to 204 °C
Cl.Cl.Cl.Cl.O=C(c1cc(-c2ccncc2)cc(C(F)(F)F)c1)N1CCN(CCN2CCc3ncccc3C2)C[C@H]1Cc1ccc(C(F)(F)F)cc1	205 to 218 °C
COC[C@@H]1CN(CCN2CCN(C(=O)c3cc(C)cc(C(F)(F)F)c3)[C@H](Cc3ccc(Cl)cc3)C2)CCO1.Cl.Cl	148 to 151 °C
COC[C@@H]1CN(CCN2CCN(C(=O)c3cc(SC)cc(C(F)(F)F)c3)[C@H](Cc3ccc(Cl)c(O)c3)C2)CCO1.Cl.Cl	169 to 174 °C
COC[C@@H]1CN(CCN2CCN(C(=O)c3cc(C(F)(F)F)cc(C(F)(F)F)c3)[C@H](Cc3ccc(C(C)C)c(O)c3)C2)CCO1.Cl.Cl	218 to 228 °C
COc1cc(C[C@@H]2CN(CCN3CCc4ncccc4C3)CCN2C(=O)c2cc(C(F)(F)F)cc(C(F)(F)F)c2)ccc1F.Cl.Cl.Cl	175 to 185 °C
COC[C@@H]1CN(CCN2CCN(C(=O)c3cc(C(F)(F)F)cc(C(F)(F)F)c3)[C@H](Cc3ccc(F)c(O)c3)C2)CCO1.Cl.Cl	156 to 168 °C
CC1(C)COCCN1CC#CCN1CCN(C(=O)c2cc(C(F)(F)F)cc(C(F)(F)F)c2)[C@H](Cc2ccc(F)c(O)c2)C1.Cl.Cl	180 to 184 °C
COC[C@@H]1CN(CCN2CCN(C(=O)c3cc(C(F)(F)F)cc(C(F)(F)F)c3)[C@H](Cc3ccc(F)c(OC)c3)C2)CCO1.Cl.Cl	180 to 190 °C
COC[C@@H]1CN(CCN2CCN(C(=O)c3cc(C(F)(F)F)cc(C(F)(F)F)c3)[C@H](Cc3ccc(F)c(F)c3)C2)CCO1.Cl.Cl	196 to 198 °C
COC[C@@H]1CN(CCN2CCN(C(=O)c3cc(OC)cc(C(F)(F)F)c3)[C@H](Cc3ccc(C(F)(F)F)c(OC)c3)C2)CCO1.Cl.Cl	135 to 140 °C
Cl.Cn1cc(CN2CCN(C(=O)c3cc(C(F)(F)F)cc(C(F)(F)F)c3)[C@H](Cc3ccc(C(F)(F)F)cc3)C2)cn1	200 to 229 °C
COc1cc(C(=O)N2CCN(CCN3CCc4ncccc4C3)C[C@H]2Cc2ccc(C(F)(F)F)cc2)cc(C(F)(F)F)c1.Cl.Cl.Cl	185 to 191 °C
C[C@@H]1CN(CCN2CCN(C(=O)c3cc(C(F)(F)F)cc(C(F)(F)F)c3)[C@H](Cc3ccc(Cl)cc3)C2)C[C@H](C)O1.Cl.Cl	150 to 175 °C (dec.)
C[C@@H]1CN(CCN2CCN(C(=O)c3cc(C(F)(F)F)cc(C(F)(F)F)c3)[C@H](Cc3ccc(Cl)c(O)c3)C2)C[C@H](C)O1.Cl.Cl	172 to 175 °C
COc1cc(C(=O)N2CCN(CCN3CCc4ncccc4C3)C[C@H]2Cc2ccc(Cl)cc2)cc(C(F)(F)F)c1.Cl.Cl.Cl	140 to 170 °C
COc1cc(C(=O)N2CCN(CCN3C[C@@H](C)O[C@@H](C)C3)C[C@H]2Cc2ccc3ccccc3c2)cc(C(F)(F)F)c1.Cl.Cl	188 to 193 °C
Cl.Cl.Cl.O=C(c1cc(C(F)(F)F)cc(C(F)(F)F)c1)N1CCN(CCN2CCc3ncccc3C2)C[C@H]1Cc1ccc(Cl)c(O)c1	237 to 243 °C (dec.)
COc1cc(C(=O)N2CCN(CCN3CCc4ncccc4C3)C[C@H]2Cc2ccc3ccccc3c2)cc(C(F)(F)F)c1.Cl.Cl.Cl	173 to 183 °C
COC[C@H]1CN(CCN2CCN(C(=O)c3cc(OC)cc(C(F)(F)F)c3)[C@H](Cc3c[nH]c4ccccc34)C2)CCO1.Cl.Cl	200 to 210 °C
COc1cc(C(=O)N2CCN(CCN3C[C@@H](C)O[C@@H](C)C3)C[C@H]2Cc2c[nH]c3ccccc23)cc(C(F)(F)F)c1.Cl.Cl	188 to 200 °C
